Experimental data reported in the NIST ThermoML archive (doi:10.1016/j.jct.2009.07.021).
Several values for one entry are separate records, joined by “and”; a condition that tells them apart may be missing. Equal entries are not always repeated. Numbers after ± are expanded uncertainties.

How the values were obtained:
[1] = molar enthalpy of transition or fusion; conditions: 298.15 K; Crystal; Clausius-Clapeyron Eq with Heat Capacity
[2] = Crystal, Calculated from knudsen effusion weight loss

CC(=O)c1cc(-c2ccccc2)sc1C [3-acetyl-2-methyl-5-phenylthiophene]
Conditions	molar enthalpy of transition or fusion [kJ/mol]
[1]	108.9 ± 0.8

[2]
Conditions	vapor or sublimation pressure
321.12 K	6.03e-05 ± 3e-06 kPa and 6.33e-05 ± 3.2e-06 kPa and 6.05e-05 ± 3e-06 kPa
323.13 K	7.9e-05 ± 4e-06 kPa and 7.98e-05 ± 4e-06 kPa and 7.73e-05 ± 3.9e-06 kPa
325.21 K	0.000102 ± 5e-06 kPa and 9.93e-05 ± 5e-06 kPa and 0.0001 ± 5e-06 kPa
327.12 K	0.000128 ± 6e-06 kPa and 0.000126 ± 6e-06 kPa and 0.00013 ± 7e-06 kPa
329.16 K	0.000162 ± 8e-06 kPa and 0.00016 ± 8e-06 kPa and 0.000159 ± 8e-06 kPa
331.2 K	0.00021 ± 1.1e-05 kPa and 0.000202 ± 1e-05 kPa and 0.000204 ± 1e-05 kPa
333.12 K	0.000259 ± 1.3e-05 kPa and 0.000261 ± 1.3e-05 kPa and 0.000258 ± 1.3e-05 kPa
335.15 K	0.000328 ± 1.6e-05 kPa and 0.000322 ± 1.6e-05 kPa and 0.000323 ± 1.6e-05 kPa
336.13 K	0.000366 ± 1.8e-05 kPa and 0.000371 ± 1.9e-05 kPa and 0.000368 ± 1.8e-05 kPa
337.2 K	0.000425 ± 2.1e-05 kPa and 0.000414 ± 2.1e-05 kPa and 0.000409 ± 2e-05 kPa
338.15 K	0.000461 ± 2.3e-05 kPa and 0.000462 ± 2.3e-05 kPa and 0.00046 ± 2.3e-05 kPa
339.2 K	0.000535 ± 2.7e-05 kPa and 0.000522 ± 2.6e-05 kPa and 0.000515 ± 2.6e-05 kPa
